# Assay results taken from patent US12433876B2, “Septin inhibitors for treatment of cancers” (UNIVERSITY OF ROCHESTER, priority 2019, dated 2025).
# Test system: HE4 mRNA
# Assay: HE4 expression by real time PCR
# Assay type: cell-based
# Conditions: ECC-1, 300 μM, 5 hours, normalized to B2M
# Description: Cell lines, Culture, and Reagents. Cells were maintained in either DMEM (SKOV-3, KLE, OVCAR-3, OVCAR8-C5 and IGROV-1) or RPMI-1640 (ECC-1 and HCH-1), supplemented with 10% fetal calf serum (or 20% for OVCAR-3), penicillin (100 units/mL), and streptomycin (100 μg/mL) at 37° C. with 5% CO2 in a humidified incubator. Antibodies were purchased from Abcam (septin-2; ab179436) and Cell Signaling Technology; ERK (9102), p-ERK (4370), -actin (3700), u-Tubulin (2144), EGFR (4267) and HER2 (4290). FCF was purchased from Abcam. All other chemicals were from Sigma Aldrich. Synthesis of Derivaties. […] The reaction was monitored using thin-layer chromatography plates with DCM-MeOH or pure ethyl acetate as eluent. Spots were monitored in a UV chamber. […] Quantitative Real-Time PCR. […] Quantitative real-time PCR was conducted using QuantStudio 12 K Flex Real-Time PCR System (ABI) and the Taqman Gene Expression Assay (ABI) consisting of the FAM-labeled probes as follows: SEPT2 (Hs01565417_ml); WFDC2 (Hs00899484_ml); TBP (Hs00427620_ml) or B2M (Hs00187842_ml), which was used as reference for normalization. […] Cell viability, proliferation, and cellular apoptosis were measured using the MTS (Promega), BrdU cell proliferation (Cell Signaling Technology), and Caspase-Glo 3/7 apoptosis detection (Promega) assays, following the respective manufacturer's recommendations with suitable modification. […]
structure (smiles),measurement,value
"O=C(Nc1ccccc1)Nc1ccnc(Cl)c1 [FCF, N-(2-chloro-4-pyridyl)-N′-phenylurea, reference compound]",HE4 mRNA,suppress HE4 mRNA to some extent
